Data published in patent US20250082612A1, “SREBP-1 INHIBITOR AND PHARMACEUTICAL COMPOSITION FOR TREATING […]” (Jichi Medical University, priority 2021, published 2025).

target: T1, human SREBP-2 (Homo sapiens, UniProt Q12772); assay: Gal4-SREBP-2 luciferase reporter assay in HepG2 stable expression strain; type: cell-based; details: EPA 100 or 300 μM, 25HCho 30 μM in culture medium; 24 hours; vs DMSO
T1 construct: expressed in transfected cells
Excerpt: In order to exclude compounds such as cholesterol and 25-hydroxycholesterol, which have an inhibitory action on both SREBP-1 and SREBP-2, first, a vector having the structure shown in FIG. 3 was constructed using the same method as in “1.” described above, except that a DNA fragment of human SREBP-2 cloned from pTK-HSVhSREBP-2 was used instead of the DNA fragment of human SREBP-1c. The base sequence of the vector is set forth in SEQ ID NO: 3. In FIG. 3, Gal4-BP2 is a human SREBP-2 that is obtained by fusing sequences of the Gal4-DNA binding domain and the minimal VP16-AD to the N-terminal side.
a stable expression strain of HepG2, which stably expressed firefly luciferase, was established using the same method as in “1. (2)” described above, except that the vector obtained in “2. (1)” described above was used. […] Next, a Reporter lysis buffer (Promega Corporation) was added to lyse the cells, and luciferase activity was measured with a luminometer. […]
Among the 39 kinds of compounds, 23 kinds of compounds were selected by searching the PAINS database (https://www.rdkit.org/docs/source/rdkit. Chem.rdfiltercatalog.html) and excluding, from targets of interest, compounds for which non-specific action had been reported. […] It is noted that the SREBP-1 inhibition rate and the SREBP-2 inhibition rate in the reporter assay were calculated using the following method. […]

T1 sequence (Q12772 with tags, fused parts or gaps limits assumed): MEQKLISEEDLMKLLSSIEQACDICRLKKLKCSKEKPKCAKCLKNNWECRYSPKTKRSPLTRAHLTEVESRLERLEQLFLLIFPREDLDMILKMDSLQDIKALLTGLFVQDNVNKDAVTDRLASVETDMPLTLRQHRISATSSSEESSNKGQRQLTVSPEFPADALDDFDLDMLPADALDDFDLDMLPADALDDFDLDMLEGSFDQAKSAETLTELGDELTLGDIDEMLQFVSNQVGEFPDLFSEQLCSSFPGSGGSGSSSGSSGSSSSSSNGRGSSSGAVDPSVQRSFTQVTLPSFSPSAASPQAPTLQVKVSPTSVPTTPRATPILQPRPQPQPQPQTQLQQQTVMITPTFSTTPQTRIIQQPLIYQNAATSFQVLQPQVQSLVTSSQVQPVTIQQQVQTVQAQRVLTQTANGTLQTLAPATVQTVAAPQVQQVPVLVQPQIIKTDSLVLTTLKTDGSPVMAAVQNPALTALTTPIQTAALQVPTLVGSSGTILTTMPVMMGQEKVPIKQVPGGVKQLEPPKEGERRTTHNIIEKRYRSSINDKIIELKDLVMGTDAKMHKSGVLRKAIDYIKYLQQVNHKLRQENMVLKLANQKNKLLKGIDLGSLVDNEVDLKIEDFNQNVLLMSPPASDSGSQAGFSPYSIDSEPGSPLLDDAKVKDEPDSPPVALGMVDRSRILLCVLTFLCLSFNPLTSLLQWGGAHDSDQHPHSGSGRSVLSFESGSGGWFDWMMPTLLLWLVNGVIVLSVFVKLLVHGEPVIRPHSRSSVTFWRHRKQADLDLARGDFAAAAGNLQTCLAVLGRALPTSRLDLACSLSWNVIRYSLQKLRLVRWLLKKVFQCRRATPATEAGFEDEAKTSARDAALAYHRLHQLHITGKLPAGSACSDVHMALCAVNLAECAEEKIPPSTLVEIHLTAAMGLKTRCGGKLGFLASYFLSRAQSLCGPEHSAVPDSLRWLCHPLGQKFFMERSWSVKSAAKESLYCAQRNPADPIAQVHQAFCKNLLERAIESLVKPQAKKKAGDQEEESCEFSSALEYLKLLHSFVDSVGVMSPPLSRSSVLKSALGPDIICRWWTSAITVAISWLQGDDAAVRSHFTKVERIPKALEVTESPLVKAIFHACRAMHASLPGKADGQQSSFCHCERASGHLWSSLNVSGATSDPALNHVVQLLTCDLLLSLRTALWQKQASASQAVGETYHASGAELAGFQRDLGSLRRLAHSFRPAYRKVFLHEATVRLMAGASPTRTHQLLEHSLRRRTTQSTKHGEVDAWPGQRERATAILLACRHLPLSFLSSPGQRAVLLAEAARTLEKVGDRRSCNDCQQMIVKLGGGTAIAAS

Structure (SMILES) | luciferase activity (SREBP-2 reporter, FIG. 4)
C[C@H](CCCC(C)(C)O)[C@H]1CC[C@H]2[C@@H]3CC=C4C[C@@H](O)CC[C@]4(C)[C@H]3CC[C@]12C [Compound 25HCho, 25-hydroxycholesterol] | luciferase activity was reduced

test system: H4IIEC3 cells; assay: Triglyceride concentration in culture solution of H4IIEC3 hepatocytes; type: cell-based, rat; details: 2 μM in culture medium; 24 hours; relative to DMSO group
Description: Specifically, first, H4IIEC3 cells (1×10^5 cells/well) seeded in advance in a 48-well plate, which are a cell line of rat hepatocytes, were cultured for 1 day. Next, culture medium exchange was carried out so that a high glucose DMEM (serum-free) containing each compound (concentration in culture medium: 2 μM) or DMSO as a control was 200 μL/well, and then the cells were incubated for 24 hours. Next, the triglyceride concentration in the culture solution was measured using a Triglyceride E-Test WAKO (FUJIFILM Corporation). In FIG. 7A to FIG. 7F, the triglyceride concentration in each compound addition group was indicated as a relative percentage in a case where the triglyceride concentration in the DMSO addition group was set to 100%.

Structure (SMILES) | triglycerides in culture solution of cultured hepatocytes (FIG. 7A-7F)
CCCOc1ccccc1OC(=O)CN1C(=O)COc2ccccc21 [(5)] | reduce triglycerides
COc1ccc2c(c1)[nH]c1c(C)nccc12 [(16)] | reduce triglycerides

Other lines, results leading:

triglycerides in culture solution of cultured hepatocytes (FIG. 7A-7F) | Structure (SMILES)
reduce triglycerides | C=CCNc1nc(-c2ccc(N3CCCC3=O)cc2)cs1 [(11)]
reduce triglycerides | CCc1c2c(nc3ccc(O)cc13)-c1cc3c(c(=O)n1C2)COC(=O)[C@]3(O)CC [(22a)]
reduce triglycerides | CSc1nn(-c2ccc([N+](=O)[O-])cc2)c(N)c1C(N)=O [(6), 5-amino-3-methylsulfanyl-1-(4-nitrophenyl)pyrazole-4-carboxamide]

target: T2, human SREBP-1c (Homo sapiens, UniProt P36956); assay: Gal4-SREBP-1c luciferase reporter assay in HepG2 stable expression strain; type: cell-based; details: EPA 100 or 300 μM, OA 300 μM, Cho 100 μM, 25HCho 30 μM in culture medium; 24 hours; vs DMSO
T2 construct: expressed in transfected cells
Excerpt: A pcDNA3.1 (+)-Hyg vector (manufactured by Thermo Fisher Scientific, Inc. under the brand of Invitrogen) was inserted with DNA fragments of a firefly luciferase reporter cloned from a pGL3-Basic vector (manufactured by Promega Corporation), a pSV40-Renilla luciferase reporter cloned from a pRL-SV40 vector (manufactured by Promega Corporation), and a human SREBP-1c cloned from a pTK-HSV-hSREBP-1c, whereby a vector having a structure shown in FIG. 1 was constructed. The base sequence of the vector is set forth in SEQ ID NO: 2. In FIG. 1, Gal4-BP1 is a human SREBP-1c that is obtained by fusing sequences of the Gal4-DNA binding domain and the minimal VP16-AD to the N-terminal side. 17 m8 is a DNA sequence to which the Gal4-DNA binding domain binds. CTCF is a DNA sequence that acts as an insulator, which blocks the action of transcription factors.
HepG2 cells, which are a cell line derived from human liver cancer, were cultured in advance to a confluency of 10% confluent in Dulbecco's Modified Eagle's Medium (DMEM) (containing 25 mM glucose, 100 units/mL penicillin, […] streptomycin sulfate, and 10 v/v % fetal bovine serum (FBS)) and then transfected with the vector obtained in (1) described above, by using a Lipofectamine 3000 transfection reagent (manufactured by Thermo Fisher Scientific, Inc. under the brand of Invitrogen), 5 whereby the vector was inserted into the genome. […] Next, a Reporter lysis buffer (Promega Corporation) was added to lyse the cells, and luciferase activity was measured with a luminometer.
Next, each candidate compound (concentration in culture medium: 2 or 5 μM) was added to the cell line (2×10^4 cells/well) seeded in a plurality of 384-well plates, which had been constructed in (2) described above, so that one kind of each compound was added to one well, and incubation was carried out for 24 hours. […] Next, Steady-Glo (a mixture of luciferin and a Lysis buffer) was added thereto, and then luciferase activity was measured with a luminometer. […]

T2 sequence (P36956 with tags, fused parts or gaps isoform P36956-4 limits assumed): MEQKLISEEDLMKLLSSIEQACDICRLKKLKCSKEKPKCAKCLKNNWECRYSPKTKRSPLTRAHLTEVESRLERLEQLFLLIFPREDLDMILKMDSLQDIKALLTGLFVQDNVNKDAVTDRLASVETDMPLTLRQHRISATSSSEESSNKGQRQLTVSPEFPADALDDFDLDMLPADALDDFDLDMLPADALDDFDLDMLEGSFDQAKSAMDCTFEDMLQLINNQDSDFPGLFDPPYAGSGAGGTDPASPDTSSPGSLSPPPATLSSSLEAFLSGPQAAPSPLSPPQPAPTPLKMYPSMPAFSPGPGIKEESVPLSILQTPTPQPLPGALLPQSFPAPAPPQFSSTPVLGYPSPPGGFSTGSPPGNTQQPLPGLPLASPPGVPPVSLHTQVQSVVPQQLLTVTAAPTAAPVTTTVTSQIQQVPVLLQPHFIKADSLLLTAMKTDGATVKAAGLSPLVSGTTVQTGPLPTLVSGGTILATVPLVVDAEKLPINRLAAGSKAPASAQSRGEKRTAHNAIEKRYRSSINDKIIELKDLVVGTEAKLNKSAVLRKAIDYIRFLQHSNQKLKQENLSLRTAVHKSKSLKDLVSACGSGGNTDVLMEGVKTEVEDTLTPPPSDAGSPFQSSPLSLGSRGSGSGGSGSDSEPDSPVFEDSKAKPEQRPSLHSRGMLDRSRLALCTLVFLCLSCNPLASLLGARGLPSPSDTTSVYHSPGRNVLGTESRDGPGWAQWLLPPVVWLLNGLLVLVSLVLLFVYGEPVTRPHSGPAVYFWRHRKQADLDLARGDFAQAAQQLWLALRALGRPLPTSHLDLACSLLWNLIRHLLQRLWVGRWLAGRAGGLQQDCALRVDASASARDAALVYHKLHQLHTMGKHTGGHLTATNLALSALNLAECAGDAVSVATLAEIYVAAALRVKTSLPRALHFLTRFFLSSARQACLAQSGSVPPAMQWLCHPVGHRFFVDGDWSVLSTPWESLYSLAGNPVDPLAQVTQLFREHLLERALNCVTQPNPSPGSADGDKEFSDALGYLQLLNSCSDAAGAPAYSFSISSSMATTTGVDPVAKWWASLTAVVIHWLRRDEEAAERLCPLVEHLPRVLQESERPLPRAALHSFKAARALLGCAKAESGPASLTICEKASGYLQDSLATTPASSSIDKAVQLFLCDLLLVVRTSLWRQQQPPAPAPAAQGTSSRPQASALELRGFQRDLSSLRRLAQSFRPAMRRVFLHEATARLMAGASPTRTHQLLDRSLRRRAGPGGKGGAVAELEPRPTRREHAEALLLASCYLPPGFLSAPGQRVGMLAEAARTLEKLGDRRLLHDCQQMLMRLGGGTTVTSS

Structure (SMILES) | luciferase activity (SREBP-1 reporter, FIG. 2)
CC(C)CCC[C@@H](C)[C@H]1CC[C@H]2[C@@H]3CC=C4C[C@@H](O)CC[C@]4(C)[C@H]3CC[C@]12C [Cho, cholesterol] | luciferase activity was reduced
CCCCCCCC/C=C\CCCCCCCC(=O)O [OA, oleic acid] | luciferase luminescence was observed
C[C@H](CCCC(C)(C)O)[C@H]1CC[C@H]2[C@@H]3CC=C4C[C@@H](O)CC[C@]4(C)[C@H]3CC[C@]12C [Compound 25HCho, 25-hydroxycholesterol] | luciferase activity was reduced
